Results published in patent publication US12661353B2, “SPT5 inhibitors and uses thereof” (Yeda Research and Development Co. Ltd., priority 2020, dated 2026).
“Also recorded” adds a separate entry of the source. Read-outs that look alike come from different tables or passages of the source.

What was measured:
[1] = tested on: mutant (Q111) Htt; assay: Htt mRNA levels in Q111 striatal cells, qPCR; on Down-regulating transcription of Mutant Htt (i.e. inhibiting transcription elongation of mutant Htt gene induced by Spt5): key: + represent a statistically significant effect; type: cell-based, mouse; conditions: for effect on mutant (Q111) Htt mRNA expression, in words / Down-regulating transcription of Mutant Htt (i.e. inhibiting transcription elongation of mutant Htt gene induced by Spt5): 48 hours; for Down-regulating transcription of Mutant Htt (i.e. inhibiting transcription elongation of mutant Htt gene induced by Spt5): Q111 striatal cells
Protocol: (§1) Cell culture—HEK293T, HeLa, MCF7, Jurkat and mouse embryonic fibroblasts (MEFs) cells were grown and maintained in Dulbecco's modified Eagle's medium supplemented with 10% fetal calf serum (Gibco) and 1% penicillin-streptomycin. To avoid NF-κB activity, HeLa cells were kept from reaching confluence and re-plated no more than 10 times following initial thawing. To induce NF-κB activity, cells were treated with […] recombinant human TNF-α (Peprotech) for the indicated times. STHdh Q111 and STHdh Q7 striatal cell lines (Coriell Institute for Medical Research) were grown in Dulbecco's modified Eagle's medium supplemented with 10% fetal calf serum (Gibco), 1% penicillin-streptomycin and 0.4 mg/ml G418 at 33° C. The cells were re-plated no more than 5-6 times, as recommended.
Huntington's disease (HD) is an inherited genetic disorder caused by expansion trinucleotide CAG repeats (36 and higher) encoding glutamine (Q) in the huntingtin (Htt) gene. Expression of the mutant gene in neurons of the striatum and the frontal cortex leads to degeneration of neuronal cells that control body movements, emotions and intellect. […] To examine the potential effect of SPIs in this context, striatal cell lines established from wild type (Q7) or from mutant (Q111) Htt knock-in mice were used. In these cell lines the coding region of the first exon of the mouse Htt gene was replaced with the same region of human wild type (Q7) or mutant (Q111) Htt, as schematically shown in FIG. 6A. The two cell lines were treated for 48 hours with the identified SPIs and following the levels of Htt mRNA were determined.
The compounds were tested as described in Example 4 hereinabove. In brief, Q111 (or Q7, where indicated) expressing Striatal cells were treated with the tested compound at the indicated concentrations for 48 hours. Then, RNA was extracted and levels of Htt mRNA were determined by qRT-PCR and normalized to β-actin. The data was analysed using GraphPad Prism software.

[2] = tested on: Spt5 activities; assay: Combined effects on the various Spt5 activities (summary of Examples 1-4); type: cell-based
[3] = tested on: pro-inflammatory genes A20, CCL20, IL6, IL8, CXCL2, JUNB and IEX1; assay: mRNA levels of pro-inflammatory genes under TNFα-induced conditions, HeLa, RT-qPCR; type: cell-based, human; conditions: for Down-regulating transcription of pro-inflammatory genes under TNFα induced conditions (i.e. inhibiting transcription elongation of pro-inflammatory genes induced by Spt5): HeLa cells, SPI 1 hour then TNFα 1 hour; for effect on TNFα-induced levels of pro-inflammatory genes, in words: HeLa, SPI (50 μM or less) 1 hour then TNFα 1 hour
Protocol: as §1
(§2) RNA analysis—Total RNA was extracted using Tri-reagent (Bio-Lab Chemicals) and Direct-Zol™ RNA MiniPrep kit (Zymo Research). Following, cDNA was synthesized from […] of total RNA using a High-Capacity cDNA Reverse Transcription Kit (ABI, Thermo Fisher Scientific). cDNA samples were analyzed by quantitative PCR (qPCR) in a ViiA 7 Real-Time PCR System using Fast qPCRBIO SYBR Green Mix (PCR Biosystems).
In the next step, the effect of the identified SPIs on expression of the selected genes following NF-κB activation was analyzed. Specifically, Hela cells were pre-incubated with DMSO or SPI (50 μM or less) for 1 hour followed by treatment with TNFα for an additional 1 hour.

[4] = tested on: pro-inflammatory genes A20, CCL20, IL6, IL8, CXCL2, JUNB and IEX1; assay: mRNA levels of pro-inflammatory genes under basal conditions, HeLa, RT-qPCR; type: cell-based, human; conditions: HeLa cells, 2 hours, 50 μM SPI
Protocol: as §1, §2
Thus, a subset of Spt5-responsive pro-inflammatory genes from the aforementioned studies and from others (Aida et al., 2006; Fujita et al., 2009), namely A20, CCL20, IL6, IL8, CXCL2, JUNB and IEX1, were selected and the effect of the identified SPIs on their expression under basal conditions and in response to NF-κB activation was tested (FIGS. 2A-C and 3A-C). Specifically, for analyzing expression under basal conditions, Hela cells were treated with vehicle (DMSO) or SPI for 2 hours and following RNA was extracted and analyzed by RT-qPCR.

CN(C)c1ccc(C2NCC(CSc3nc4ccccc4s3)O2)cc1 (centres unmarked) [SPI-85]
effect on mutant (Q111) Htt mRNA expression, in words [1]: diminished mutant Htt expression
Down-regulating transcription of Mutant Htt (i.e. inhibiting transcription elongation of mutant Htt gene induced by Spt5) [1]: +
classification by effect on the various Spt5 activities, in words [2]: little or no effect on basal and induced pro-inflammatory gene expression
classification by effect on the various Spt5 activities, in words ([2]; listed as SPJ-85): a single activity as SPI inhibitors towards inhibiting transcription of Htt gene

CCc1ccccc1NS(=O)(=O)c1ccc(-n2ncccc2=O)cc1 [SPI-4516K, N-(2-ethylphenyl)-4-(6-oxopyridazin-1(6H)-yl)benzenesulfonamide]
effect on mutant (Q111) Htt mRNA expression, in words [1]: efficacy in selectively inhibiting transcription of Htt gene

O=C1C(=Cc2cccc(O)c2)CSCC1=Cc1cccc(O)c1 [SPI-157]
Down-regulating transcription of pro-inflammatory genes under TNFα induced conditions (i.e. inhibiting transcription elongation of pro-inflammatory genes induced by Spt5) [3]: +++ (+++ represent >80% inhibition)
Up-regulation of pro-inflammatory genes under basal conditions (i.e. inhibiting proximal promoter pausing of pro-inflammatory genes induced by Spt5) [4]: ++ (++ >3)
effect on mutant (Q111) Htt mRNA expression, in words [1]: did not affect mutant Htt expression
classification by effect on the various Spt5 activities, in words [2]: affected the basal and the TNFα-induced pro-inflammatory gene transcription

O=C(/C=C/c1ccc(O)cc1)CC(=O)/C=C/c1ccc(O)cc1 [SPI-29]
Down-regulating transcription of pro-inflammatory genes under TNFα induced conditions (i.e. inhibiting transcription elongation of pro-inflammatory genes induced by Spt5) [3]: +++ (+++ represent >80% inhibition)
Up-regulation of pro-inflammatory genes under basal conditions (i.e. inhibiting proximal promoter pausing of pro-inflammatory genes induced by Spt5) [4]: ++ (++ >3)
Down-regulating transcription of Mutant Htt (i.e. inhibiting transcription elongation of mutant Htt gene induced by Spt5) [1]: +
classification by effect on the various Spt5 activities, in words [2]: affect all the tested Spt5 activities

OCc1ccc(-c2ccc(-c3ccc(CO)s3)o2)s1 [SPI-48]
Down-regulating transcription of Mutant Htt (i.e. inhibiting transcription elongation of mutant Htt gene induced by Spt5) [1]: +
classification by effect on the various Spt5 activities, in words [2]: a single activity as SPI inhibitors towards inhibiting transcription of Htt gene

CSc1ccccc1NS(=O)(=O)c1ccc(-n2ncc(Cl)c(Cl)c2=O)cc1 [SPI-1477]
effect on mutant (Q111) Htt mRNA expression, in words [1]: efficacy in selectively inhibiting transcription of Htt gene

N#CC(C#N)=CC=C(Sc1ncc(C(F)(F)F)cc1Cl)c1ccc(Cl)cc1 [SPI-16]
Down-regulating transcription of pro-inflammatory genes under TNFα induced conditions (i.e. inhibiting transcription elongation of pro-inflammatory genes induced by Spt5) [3]: +++ (+++ represent >80% inhibition)
Up-regulation of pro-inflammatory genes under basal conditions (i.e. inhibiting proximal promoter pausing of pro-inflammatory genes induced by Spt5) [4]: ++ (++ >3)
effect on mutant (Q111) Htt mRNA expression, in words [1]: did not affect mutant Htt expression
classification by effect on the various Spt5 activities, in words [2]: affected the basal and the TNFα-induced pro-inflammatory gene transcription

CN(Cc1cnn(Cc2ccccc2)c1)c1ccc2nnc(-c3ccccc3)n2n1 [SPI-17]
Down-regulating transcription of pro-inflammatory genes under TNFα induced conditions (i.e. inhibiting transcription elongation of pro-inflammatory genes induced by Spt5) [3]: +++ (+++ represent >80% inhibition)
Up-regulation of pro-inflammatory genes under basal conditions (i.e. inhibiting proximal promoter pausing of pro-inflammatory genes induced by Spt5) [4]: +++ (+++ represent effect >10)
effect on mutant (Q111) Htt mRNA expression, in words [1]: did not affect mutant Htt expression
classification by effect on the various Spt5 activities, in words [2]: affected the basal and the TNFα-induced pro-inflammatory gene transcription

O=C(O)c1ccc(C=C2CSc3c(F)cccc3C2=O)cc1 [SPI-46]
Down-regulating transcription of pro-inflammatory genes under TNFα induced conditions (i.e. inhibiting transcription elongation of pro-inflammatory genes induced by Spt5) [3]: +++ (+++ represent >80% inhibition)
Up-regulation of pro-inflammatory genes under basal conditions (i.e. inhibiting proximal promoter pausing of pro-inflammatory genes induced by Spt5) [4]: + (+ >1.6)
effect on mutant (Q111) Htt mRNA expression, in words [1]: did not affect mutant Htt expression
classification by effect on the various Spt5 activities, in words [2]: affected the basal and the TNFα-induced pro-inflammatory gene transcription

CCN(CC)CCOc1ccc(C(=C(Cl)c2ccccc2)c2ccccc2)cc1 [SPI-42]
Down-regulating transcription of pro-inflammatory genes under TNFα induced conditions (i.e. inhibiting transcription elongation of pro-inflammatory genes induced by Spt5) [3]: ++ (++ >65%)
effect on TNFα-induced levels of pro-inflammatory genes, in words [3]: affected mainly the genes that were strongly induced by the TNFα treatment
Up-regulation of pro-inflammatory genes under basal conditions (i.e. inhibiting proximal promoter pausing of pro-inflammatory genes induced by Spt5) [4]: + (+ >1.6)
effect on mutant (Q111) Htt mRNA expression, in words [1]: did not affect mutant Htt expression
classification by effect on the various Spt5 activities, in words [2]: affected the basal and the TNFα-induced pro-inflammatory gene transcription

Cc1ccnc(SC=CC(=O)c2ccccc2)n1 [SPI-57]
Down-regulating transcription of pro-inflammatory genes under TNFα induced conditions (i.e. inhibiting transcription elongation of pro-inflammatory genes induced by Spt5) [3]: +++ (+++ represent >80% inhibition)
Up-regulation of pro-inflammatory genes under basal conditions (i.e. inhibiting proximal promoter pausing of pro-inflammatory genes induced by Spt5) [4]: + (+ >1.6)
effect on mutant (Q111) Htt mRNA expression, in words [1]: did not affect mutant Htt expression
classification by effect on the various Spt5 activities, in words [2]: affected the basal and the TNFα-induced pro-inflammatory gene transcription

COc1ccc(C2=NCC(CSc3nc4cc(Cl)ccc4o3)S2)cc1 (centres unmarked) [SPI-0324]
effect on mutant (Q111) Htt mRNA expression, in words [1]: efficacy in selectively inhibiting transcription of Htt gene

Nc1ccc2ncnc(NCCc3ccc(Oc4ccccc4)cc3)c2c1 [SPI-74]
Down-regulating transcription of pro-inflammatory genes under TNFα induced conditions (i.e. inhibiting transcription elongation of pro-inflammatory genes induced by Spt5) [3]: ++ (++ >65%)
effect on TNFα-induced levels of pro-inflammatory genes, in words [3]: affected mainly the genes that were strongly induced by the TNFα treatment
Up-regulation of pro-inflammatory genes under basal conditions (i.e. inhibiting proximal promoter pausing of pro-inflammatory genes induced by Spt5) [4]: + (+ >1.6)
Down-regulating transcription of Mutant Htt (i.e. inhibiting transcription elongation of mutant Htt gene induced by Spt5) [1]: +
classification by effect on the various Spt5 activities, in words [2]: affect all the tested Spt5 activities

OCc1ccc(-c2ccc(-c3cccs3)s2)s1 [SPI-8108]
effect on mutant (Q111) Htt mRNA expression, in words [1]: efficacy in selectively inhibiting transcription of Htt gene

O=c1oc2cc(O)ccc2s1 [SPI-09]
effect on mutant (Q111) Htt mRNA expression, in words [1]: diminished mutant Htt expression
Down-regulating transcription of Mutant Htt (i.e. inhibiting transcription elongation of mutant Htt gene induced by Spt5) [1]: +
classification by effect on the various Spt5 activities, in words [2]: little or no effect on basal and induced pro-inflammatory gene expression
classification by effect on the various Spt5 activities, in words ([2]; listed as SPJ-09): a single activity as SPI inhibitors towards inhibiting transcription of Htt gene

O=C(O)c1ccc(C=C2CSc3ccc(F)cc3C2=O)cc1 [SPI-68]
Down-regulating transcription of pro-inflammatory genes under TNFα induced conditions (i.e. inhibiting transcription elongation of pro-inflammatory genes induced by Spt5) [3]: ++ (++ >65%)
effect on TNFα-induced levels of pro-inflammatory genes, in words [3]: affected mainly the genes that were strongly induced by the TNFα treatment
Up-regulation of pro-inflammatory genes under basal conditions (i.e. inhibiting proximal promoter pausing of pro-inflammatory genes induced by Spt5) [4]: + (+ >1.6)
Down-regulating transcription of Mutant Htt (i.e. inhibiting transcription elongation of mutant Htt gene induced by Spt5) [1]: +

Cn1cc(-c2ccncc2)c(-c2ccc(OCc3ccc4ccccc4n3)cc2)n1 [SPI-95]
Down-regulating transcription of pro-inflammatory genes under TNFα induced conditions (i.e. inhibiting transcription elongation of pro-inflammatory genes induced by Spt5) [3]: ++ (++ >65%)
effect on TNFα-induced levels of pro-inflammatory genes, in words [3]: affected mainly the genes that were strongly induced by the TNFα treatment
Up-regulation of pro-inflammatory genes under basal conditions (i.e. inhibiting proximal promoter pausing of pro-inflammatory genes induced by Spt5) [4]: + (+ >1.6)
effect on mutant (Q111) Htt mRNA expression, in words [1]: did not affect mutant Htt expression
classification by effect on the various Spt5 activities, in words [2]: affected the basal and the TNFα-induced pro-inflammatory gene transcription

CCc1ccccc1NS(=O)(=O)c1ccc(-n2ncc(Cl)c(Cl)c2=O)cc1 [SPI-31]
Down-regulating transcription of pro-inflammatory genes under TNFα induced conditions (i.e. inhibiting transcription elongation of pro-inflammatory genes induced by Spt5) [3]: +++ (+++ represent >80% inhibition)
effective concentration on mutant Htt lower than the concentration needed to inhibit expression of the pro-inflammatory genes [1]: about 15 fold
effect on mutant (Q111) Htt mRNA expression, in words [1]: efficacy in selectively inhibiting transcription of Htt gene
Down-regulating transcription of Mutant Htt (i.e. inhibiting transcription elongation of mutant Htt gene induced by Spt5) [1]: +
classification by effect on the various Spt5 activities, in words [2]: inhibited mainly the positive activity of Spt5 with little or no effect on proximal promoter pausing; also recorded: a single activity as SPI inhibitors towards inhibiting transcription of Htt gene
